In patent US8394848B2, “Compounds that modulate intracellular calcium” (Calcimedica, Inc., priority 2008, dated 2013):

system: JR251 or RBL cells; experiment: Store-operated calcium entry, either JR251 or RBL cells, or both; type: cell-based
In short: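 Orai1/STIM1 stable cells: fluo-4-AM loaded, compound 30 min at RT in Ca2+-free HBSS, then CaCl2 added; IC50 from Peak-Basal FLIPR fluorescence. RBL-2H3 cells: compound 5 min, then thapsigargin (5.5× stock, 5.5 uM) 25 min, then calcium added; IC50 from Upslope (signal 7 s after calcium minus baseline).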

IC50, < 10 µM:
O=C(Nc1scc(-c2ccc(Br)cc2)c1C(=O)O)c1cn2ccccc2n1 [4-(4-bromophenyl)-2-(imidazo[1,2-a]pyridine-2-carboxamido)thiophene-3-carboxylic acid], O=C(Nc1scc(-c2ccc(Cl)cc2)c1C(=O)O)c1nc2c(F)cc(F)cc2o1 [4-(4-chlorophenyl)-2-(4,6-difluorobenzo[d]oxazole-2-carboxamido)thiophene-3-carboxylic acid], O=C(Nc1scc(-c2ccc(Cl)cc2)c1C(=O)O)c1cnn(-c2ccccc2)c1 [4-(4-chlorophenyl)-2-(1-phenyl-1H-pyrazole-4-carboxamido)thiophene-3-carboxylic acid], O=C(Nc1scc(-c2ccc(Cl)cc2)c1C(=O)O)c1nc2cc(F)ccc2o1 [4-(4-chlorophenyl)-2-(5-fluorobenzo[d]oxazole-2-carboxamido)thiophene-3-carboxylic acid], O=C(Nc1scc(-c2ccc(Cl)cc2)c1C(=O)O)c1ccc(-c2ccc(Cl)cc2)o1 [4-(4-chlorophenyl)-2-(5-(4-chlorophenyl)furan-2-carboxamido)thiophene-3-carboxylic acid], O=C(O)c1c(-c2ccc(Br)cc2)csc1NC(=O)C1Cc2cc(Cl)ccc2O1 (stereo not shown) [4-(4-bromophenyl)-2-(5-chloro-2,3-dihydrobenzofuran-2-carboxamido)thiophene-3-carboxylic acid], Cc1ccc(-c2csc(NC(=O)c3ccsc3)c2C(=O)O)cc1C [4-(3,4-dimethylphenyl)-2-(thiophene-3-carboxamido)thiophene-3-carboxylic acid], COc1cc(F)c(-c2csc(NC(=O)c3cc4ccccc4o3)c2C(=O)O)cc1F [2-(benzofuran-2-carboxamido)-4-(2,5-difluoro-4-methoxyphenyl)thiophene-3-carboxylic acid], O=C(O)c1c(-c2ccc(Br)cc2)csc1NC(=O)C1Cc2ccccc2O1 (stereo not shown) [4-(4-bromophenyl)-2-(2,3-dihydrobenzofuran-2-carboxamido)thiophene-3-carboxylic acid], Cc1ccc(-c2csc(NC(=O)c3nc4c(F)cccc4s3)c2C(=O)O)c(F)c1F [4-(2,3-difluoro-4-methylphenyl)-2-(4-fluorobenzo[d]thiazole-2-carboxamido)thiophene-3-carboxylic acid], O=C(Nc1scc(-c2ccc(Cl)cc2F)c1C(=O)O)c1nc2cccc(F)c2s1 [4-(4-chloro-2-fluorophenyl)-2-(7-fluorobenzo[d]thiazole-2-carboxamido)thiophene-3-carboxylic acid], COc1ccc(-c2csc(NC(=O)c3cc4ccccc4o3)c2C(=O)O)c(F)c1F [2-(benzofuran-2-carboxamido)-4-(2,3-difluoro-4-methoxyphenyl)thiophene-3-carboxylic acid], O=C(O)c1c(-c2ccc(Br)cc2)csc1NC(=O)C(F)Cc1c(F)cccc1Cl (stereo not shown) [4-(4-bromophenyl)-2-(3-(2-chloro-6-fluorophenyl)-2-fluoropropanamido)thiophene-3-carboxylic acid], Cc1ccc(-c2csc(NC(=O)c3sccc3C)c2C(=O)O)cc1C [4-(3,4-dimethylphenyl)-2-(3-methylthiophene-2-carboxamido)thiophene-3-carboxylic acid], Cc1ccc(-c2csc(NC(=O)c3nc4cccc(Br)c4o3)c2C(=O)O)c(F)c1F [2-(7-bromobenzo[d]oxazole-2-carboxamido)-4-(2,3-difluoro-4-methylphenyl)thiophene-3-carboxylic acid], O=C(CC1CCc2ccccc21)Nc1scc(-c2ccc(Cl)cc2)c1C(=O)O (stereo not shown) [4-(4-chlorophenyl)-2-(2-(2,3-dihydro-1H-inden-1-yl)acetamido)thiophene-3-carboxylic acid], O=C(O)c1c(-c2ccc(Cl)cc2)csc1NC(=O)C1Cc2c(F)cccc2S1 (stereo not shown) [4-(4-chlorophenyl)-2-(4-fluoro-2,3-dihydrobenzo[b]thiophene-2-carboxamido)thiophene-3-carboxylic acid], O=C(Nc1scc(-c2ccc(Cl)cc2)c1C(=O)O)/C(F)=C/c1ccccc1Cl [(Z)-4-(4-chlorophenyl)-2-(3-(2-chlorophenyl)-2-fluoroacrylamido)thiophene-3-carboxylic acid], O=C(Nc1scc(-c2ccc(Cl)cc2)c1C(=O)O)c1cc2c(Cl)cccn2n1 [4-(4-chlorophenyl)-2-(4-chloropyrazolo[1,5-a]pyridine-2-carboxamido)thiophene-3-carboxylic acid], Cc1ccc(-c2csc(NC(=O)c3nc4ccccc4o3)c2C(=O)O)cc1F [2-(benzo[d]oxazole-2-carboxamido)-4-(3-fluoro-4-methylphenyl)thiophene-3-carboxylic acid], COc1cccc2cc(-c3csc(NC(=O)c4cc5ccccc5o4)c3C(=O)O)oc12 [2-(benzofuran-2-carboxamido)-4-(7-methoxybenzofuran-2-yl)thiophene-3-carboxylic acid], Cc1cc(-c2csc(NC(=O)c3nc4ccccc4o3)c2C(=O)O)c(F)cc1Cl [2-(benzo[d]oxazole-2-carboxamido)-4-(4-chloro-2-fluoro-5-methylphenyl)thiophene-3-carboxylic acid], O=C(Nc1scc(-c2ccc(C(F)(F)F)cc2)c1C(=O)O)c1cccs1 [2-(thiophene-2-carboxamido)-4-(4-(trifluoromethyl)phenyl)thiophene-3-carboxylic acid], N#Cc1ccccc1CCC(=O)Nc1scc(-c2ccc(Cl)cc2)c1C(=O)O [4-(4-chlorophenyl)-2-(3-(2-cyanophenyl)propanamido)thiophene-3-carboxylic acid], O=C(O)c1c(-c2ccc(Cl)cc2)csc1NC(=O)C(F)Cc1ccc(F)cc1Cl (stereo not shown) [2-(3-(2-chloro-4-fluorophenyl)-2-fluoropropanamido)-4-(4-chlorophenyl)thiophene-3-carboxylic acid], O=C(CCc1cccc(F)c1)Nc1scc(-c2ccc(Br)cc2)c1C(=O)O [4-(4-bromophenyl)-2-(3-(3-fluorophenyl)propanamido)thiophene-3-carboxylic acid], O=C(Nc1scc(-c2ccc(Oc3ccccc3)cc2)c1C(=O)O)c1nc2ccccc2o1 [2-(benzo[d]oxazole-2-carboxamido)-4-(4-phenoxyphenyl)thiophene-3-carboxylic acid], COc1cc(Br)cc2cc(-c3csc(NC(=O)c4cc5ccccc5o4)c3C(=O)O)oc12 [2-(benzofuran-2-carboxamido)-4-(5-bromo-7-methoxybenzofuran-2-yl)thiophene-3-carboxylic acid], O=C(Nc1scc(-c2ccc(Cl)cc2)c1C(=O)O)c1nccc(-c2ccccc2)n1 [4-(4-chlorophenyl)-2-(4-phenylpyrimidine-2-carboxamido)thiophene-3-carboxylic acid], O=C(Nc1scc(-c2cc3cccc(OCc4ccccc4)c3o2)c1C(=O)O)c1cc2ccccc2o1 [2-(benzofuran-2-carboxamido)-4-(7-(benzyloxy)benzofuran-2-yl)thiophene-3-carboxylic acid], O=C(CCc1ccccc1F)Nc1scc(-c2ccc(Cl)cc2)c1C(=O)O [4-(4-chlorophenyl)-2-(3-(2-fluorophenyl)propanamido)thiophene-3-carboxylic acid], O=C(Nc1scc(-c2ccc(Cl)cc2)c1C(=O)O)c1ccc(-c2ccccc2)s1 [4-(4-chlorophenyl)-2-(5-phenylthiophene-2-carboxamido)thiophene-3-carboxylic acid], COc1c(C(=O)Nc2scc(-c3ccc(Cl)cc3)c2C(=O)O)csc1Cl [2-(5-chloro-4-methoxythiophene-3-carboxamido)-4-(4-chlorophenyl)thiophene-3-carboxylic acid], Cc1cnc(C(=O)Nc2scc(-c3ccc(Cl)cc3)c2C(=O)O)cn1 [4-(4-chlorophenyl)-2-(5-methylpyrazine-2-carboxamido)thiophene-3-carboxylic acid], O=C(Nc1scc(-c2ccc(Cl)cc2)c1C(=O)O)c1cn2ccsc2n1 [4-(4-chlorophenyl)-2-(imidazo[2,1-b]thiazole-6-carboxamido)thiophene-3-carboxylic acid], Cc1c(S(=O)(=O)c2ccc(Cl)cc2)csc1C(=O)Nc1scc(-c2ccc(Br)cc2)c1C(=O)O [4-(4-bromophenyl)-2-(4-(4-chlorophenylsulfonyl)-3-methylthiophene-2-carboxamido)thiophene-3-carboxylic acid], Cc1ccc(-c2csc(NC(=O)c3cc4ccccc4o3)c2C(=O)O)c(F)c1F [2-(benzofuran-2-carboxamido)-4-(2,3-difluoro-4-methylphenyl)thiophene-3-carboxylic acid], O=C(Nc1scc(-c2ccc(Cl)cc2)c1C(=O)O)c1ccncc1 [4-(4-chlorophenyl)-2-(isonicotinamido)thiophene-3-carboxylic acid], O=C(O)c1c(-c2ccc(Cl)cc2)csc1NC(=O)C1Cc2ccccc2N1 (stereo not shown) [4-(4-chlorophenyl)-2-(indoline-2-carboxamido)thiophene-3-carboxylic acid], O=C(Nc1scc(-c2ccc(Br)cc2)c1C(=O)O)c1ccncc1 [4-(4-bromophenyl)-2-(isonicotinamido)thiophene-3-carboxylic acid]
